According to publication PMC8338929, “Acetylation turns leucine into a drug by membrane transporter switching” (Scientific Reports, 2021):

Molecular target: T1, human PepT1 (SLC15A1) (Homo sapiens, UniProt P46059)
T1 construct: host or cells: MDCK-II
T1 sequence (P46059 1-708): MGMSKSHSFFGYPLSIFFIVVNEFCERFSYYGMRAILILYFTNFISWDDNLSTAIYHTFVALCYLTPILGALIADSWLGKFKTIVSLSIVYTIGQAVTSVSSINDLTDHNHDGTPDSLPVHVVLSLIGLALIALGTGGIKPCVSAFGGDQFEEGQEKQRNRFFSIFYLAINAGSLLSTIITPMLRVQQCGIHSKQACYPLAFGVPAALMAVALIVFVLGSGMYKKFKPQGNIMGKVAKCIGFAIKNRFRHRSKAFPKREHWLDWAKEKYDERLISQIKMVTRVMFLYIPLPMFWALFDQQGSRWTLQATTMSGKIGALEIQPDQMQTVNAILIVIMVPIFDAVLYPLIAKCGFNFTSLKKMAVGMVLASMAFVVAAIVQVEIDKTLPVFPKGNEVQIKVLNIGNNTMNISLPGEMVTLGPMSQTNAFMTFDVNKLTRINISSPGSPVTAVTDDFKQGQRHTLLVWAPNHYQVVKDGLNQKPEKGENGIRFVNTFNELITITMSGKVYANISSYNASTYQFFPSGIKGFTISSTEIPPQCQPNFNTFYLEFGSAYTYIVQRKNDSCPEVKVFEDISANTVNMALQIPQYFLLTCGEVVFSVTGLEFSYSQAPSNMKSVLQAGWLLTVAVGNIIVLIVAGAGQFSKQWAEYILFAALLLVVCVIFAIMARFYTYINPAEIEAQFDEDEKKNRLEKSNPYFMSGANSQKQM
Assay: Inhibition of PepT1 uptake of probe substrate Gly-Sar in MDCK-II cells
Type: cell-based
Conditions: probe Gly-Sar 50 µM; positive control losartan 200 µM; pH 5.5
Experimental: Transport studies with human PepT1 (SLC15A1), LAT1 (SLC7A5) and MCT1 (SLC16A1) were conducted in MDCK-II cells expressing the human transporter or control cells expressing a vector with Green Fluorescence Protein. Cells were transfected using a proprietary, transient transfection system (OPTI-EXPRESSION Technology, BioIVT). The results from the control cells were used to correct for substrate permeation by routes other than the transporter being investigated in the study. […] Specifically, Net Transporter Mediated Substrate Uptake (pmol/min/cm^2) = (Cellular accumulation in the presence of the transporter) − (Mean cellular accumulation in the absence of the transporter). MDCK-II cells were maintained in DMEM with low glucose and 10% FBS. Cells were used at passages up to 40 were seeded at 60,000 ± 10,000 cells/well on 96-well plates approximately 24 h before transfection, and transport assays were performed approximately 48 h after transfection. […]
Transport studies with PepT1 were conducted in 96-well cell culture plate with wells containing a monolayer of MDCK-II cells grown on a permeable support and a corresponding 96-well receiver tray. […] Then a 30-µL sample was taken and mixed with 200 µL of scintillation fluid and scintillation counted (1450 Microbeta, Perkin-Elmer). […]

IC50: 740 µM
SMILES: CC(=O)N[C@@H](CC(C)C)C(=O)O [N-acetyl-L-leucine]
